Measurements published in patent publication US7956196B2, “1,3-dihydro-benzimidazol-2-ylidene amines as inhibitors of respiratory syncytial virus replication” (Tibotec Pharmaceuticals Ltd., priority 2005, dated 2011).
Where a name gives a salt, the structure may show the parent alone. Read-outs that look alike come from different tables or passages of the source.

Experiments:
[1] = system: Respiratory Syncytial Virus; experiment: In vitro screening for activity against RSV, automated tetrazolium-based (MTT) colorimetric assay in HeLa cells; assay type: cell-based; details: human respiratory syncytial virus, 168 h, read-out: pIC50 (converted)
Text: In vitro screening of compounds of formula (I) for activity against RSV. The percent protection against cytopathology caused by viruses (antiviral activity or EC50) achieved by tested compounds and their cytotoxicity (CC50) are both calculated from dose-response curves. The selectivity of the antiviral effect is represented by the selectivity index (SI), calculated by dividing the CC50 (cytotoxic dose for 50% of the cells) by the EC50 (antiviral activity for 50% of the cells). The tables in the above experimental part list the category to which each of the prepared compounds belong: Compounds belonging to activity category “A” have a pEC50 (-log of EC50 when expressed in molar units) equal to or more than 7. Compounds belonging to activity category “B” have a pEC50 value between 6 and 7.
Automated tetrazolium-based colorimetric assays were used for determination of EC50 and CC50 of test compounds. Flat-bottom, 96-well plastic microtiter trays were filled with 180 μl of Eagle's Basal Medium, supplemented with 5% FCS (0% for FLU) and 20 mM Hepes buffer. Subsequently, stock solutions (7.8×final test concentration) of compounds were added in 45 μl volumes to a series of triplicate wells so as to allow simultaneous evaluation of their effects on virus- and mock-infected cells. Five five-fold dilutions were made directly in the microtiter trays using a robot system. Untreated virus controls, and HeLa cell controls were included in each test. Approximately 100 TCID50 of Respiratory Syncytial Virus was added to two of the three rows in a volume of 50 μl. The same volume of medium was added to the third row to measure the cytotoxicity of the compounds at the same concentrations as those used to measure the antiviral activity. After two hours of incubation, a suspension (4×10^5 cells/ml) of HeLa cells was added to all wells in a volume of 50 μl. The cultures were incubated at 37° C. in a 5% CO2 atmosphere. Seven days after infection the cytotoxicity and the antiviral activity was examined spectrophotometrically. To each well of the microtiter tray, 25 μl of a solution of MTT (3-(4,5-dimethylthiazol-2-yl)-2,5-diphenyltetrazolium bromide) was added. The trays were further incubated at 37° C. for 2 hours, after which the medium was removed from each cup. Solubilization of the formazan crystals was achieved by adding 100 μl 2-propanol. Complete dissolution of the formazan crystals were obtained after the trays have been placed on a plate shaker for 10 min. Finally, the absorbances were read in an eight-channel computer-controlled photometer (Multiskan MCC, Flow Laboratories) at two wavelengths (540 and 690 nm). The absorbance measured at 690 nm was automatically subtracted from the absorbance at 540 nm, so as to eliminate the effects of non-specific absorption.
The percent protection against cytopathology caused by viruses (antiviral activity or EC50) achieved by tested compounds and their cytotoxicity (CC50) were both calculated from dose-response curves. The selectivity of the antiviral effect is represented by the selectivity index (SI), calculated by dividing the CC50 (cytotoxic dose for 50% of the cells) by the EC50 (antiviral activity for 50% of the cells).

[2] = protection against RSV cytopathology in HeLa cells, MTT readout seven days after infection

SMILES | melting point [°C] | IC50 [1, 2] [nM] | IC50 ([1]; HeLa) [nM]
COC(=O)c1ccc(Cn2c(=NCCc3ccc(Br)cc3)n(Cc3cccc4cccnc34)c3ccccc32)cc1 (as salt: HCl) [Compound 35] | 128 |  | 
N#Cc1ccc(Cn2c(=NCCCN3CCOCC3)n(Cc3cccc4cccnc34)c3ccccc32)cc1 [Compound 13] | 80 | 126 | 
Cc1cc(C)cc(CN=c2n(Cc3ccc(C#N)cc3)c3ccccc3n2Cc2cccc3cccnc23)c1 [Compound 16] | 142 |  | 251
N#Cc1ccc(Cn2c(=NCCC(c3ccccc3)c3ccccc3)n(Cc3cccc4cccnc34)c3ccccc32)cc1 [Compound 18] | 184 | 316 | 
N#Cc1ccc(Cn2c(=NC(=O)c3ccc(Cl)cc3Cl)n(Cc3cccc4cccnc34)c3ccccc32)cc1 [Compound 23] | 114 |  | 631
N#Cc1ccc(Cn2c(=NC(=O)c3cc(C(F)(F)F)cc(C(F)(F)F)c3)n(Cc3cccc4cccnc34)c3ccccc32)cc1 [Compound 24] | 190 | 794 | 
COc1ccc(C(=O)N=c2n(Cc3ccc(C#N)cc3)c3ccccc3n2Cc2cccc3cccnc23)cc1 [Compound 27] | 150 |  | 20000
N#Cc1ccc(Cn2c(=NC(=O)c3ccc(-c4ccccc4)cc3)n(Cc3cccc4cccnc34)c3ccccc32)cc1 [Compound 29] | 100 | 39800 | 
COc1cc(C(=O)N=c2n(Cc3ccc(C#N)cc3)c3ccccc3n2Cc2cccc3cccnc23)cc(OC)c1OC [Compound 32] | 108 |  | > 100000
N#Cc1ccc(Cn2c(=NC(=O)c3ccc(Oc4ccccc4)cc3)n(Cc3cccc4cccnc34)c3ccccc32)cc1 [Compound 33] | 66 | 100000 | 
COC(=O)c1ccc(Cn2c(=NCCc3ccc(Br)cc3)n(Cc3cccc4cccnc34)c3ccccc32)cc1 [Compound 35] |  | 7.94 | 
COC(=O)c1ccc(Cn2c(=NCCc3cccc(F)c3)n(Cc3cccc4cccnc34)c3ccccc32)cc1 [Compound 36] | 89 | 79.4 | 
COC(=O)c1ccc(Cn2c(=NCCCN3CCOCC3)n(Cc3cccc4cccnc34)c3ccccc32)cc1 [Compound 37] |  | 126 | 
COC(=O)c1ccc(Cn2c(=NCCC(c3ccccc3)c3ccccc3)n(Cc3cccc4cccnc34)c3ccccc32)cc1 [Compound 38] | 146 | 158 | 
COC(=O)c1ccc(Cn2c(=NC(=O)c3cc(C(F)(F)F)cc(C(F)(F)F)c3)n(Cc3cccc4cccnc34)c3ccccc32)cc1 [Compound 39] | 204 | 1580 | 
COC(=O)c1ccc(Cn2c(=NC(=O)c3ccc(Br)cc3)n(Cc3cccc4cccnc34)c3ccccc32)cc1 [Compound 40] | 131 | > 100000 | 
COc1ccc(CCN=c2n(Cc3ccc(OC)cc3)c3ccccc3n2Cc2cccc3cccnc23)cc1 [Compound 41] |  | 63.1 | 
COc1ccc(CCN=c2n(Cc3ccc(C)cc3)c3ccccc3n2Cc2cccc3cccnc23)cc1 [Compound 42] |  |  | 79.4
COC(=O)c1cccc(Cn2c(=NCCc3ccc(Br)cc3)n(Cc3cccc4cccnc34)c3ccccc32)c1 [Compound 43] | 80 | 79.4 | 
COc1ccc(Cn2c(=NCCc3ccc(Br)cc3)n(Cc3cccc4cccnc34)c3ccccc32)cc1 [Compound 44] | 87 | 79.4 | 
COc1ccc(CCN=c2n(Cc3ccc(Br)cc3)c3ccccc3n2Cc2cccc3cccnc23)cc1 [Compound 45] |  | 100 | 
COc1ccc(CCN=c2n(Cc3ccc(Cl)cc3)c3ccccc3n2Cc2cccc3cccnc23)cc1 [Compound 46] | 250 | 100 | 
COc1ccc(CCN=c2n(Cc3ccc(F)cc3)c3ccccc3n2Cc2cccc3cccnc23)cc1 [Compound 47] |  | 158 | 
CCOc1ccc(CCn2c(=NCCc3ccc(OC)cc3)n(Cc3cccc4cccnc34)c3ccccc32)cc1 [Compound 48] |  | 200 | 
COc1ccc(C(=O)Cn2c(=NCCc3ccc(Br)cc3)n(Cc3cccc4cccnc34)c3ccccc32)cc1 [Compound 50] | 152 | 316 | 
CCOc1ccc(CCn2c(=NCCc3ccc(Br)cc3)n(Cc3cccc4cccnc34)c3ccccc32)cc1 [Compound 51] |  | 501 | 
O=C(Cn1c(=NCCc2ccc(Br)cc2)n(Cc2cccc3cccnc23)c2ccccc21)c1ccc(Br)cc1 [Compound 52] | 120 |  | 631
N#Cc1ccc(Cn2c(=NCCCN3CCOCC3)n(Cc3ccc4ccccc4n3)c3ccccc32)cc1 [Compound 56] |  | 200 | 

Further lines, with some results ahead:

melting point [°C] | IC50 [1, 2] [nM] | SMILES | IC50 ([1]; HeLa) [nM]
 | 6.31 | N#Cc1ccc(Cn2c(=NCCc3ccc(OCCO)cc3)n(Cc3cccc4cccnc34)c3ccccc32)cc1 [Compound 1] | 
 | 10 | N#Cc1ccc(CN=c2n(Cc3ccc(C#N)cc3)c3ccccc3n2Cc2cccc3cccnc23)cc1 [Compound 2] | 
160 | 12.6 | N#Cc1ccc(Cn2c(=NCCc3ccc(O)cc3)n(Cc3cccc4cccnc34)c3ccccc32)cc1 [Compound 4] | 
 | 15.8 | COC(=O)c1ccc(CN=c2n(Cc3ccc(C#N)cc3)c3ccccc3n2Cc2cccc3cccnc23)cc1 [Compound 5] | 
 | 31.6 | N#Cc1ccc(Cn2c(=NCCc3ccc(Br)cc3)n(Cc3cccc4cccnc34)c3ccccc32)cc1 [Compound 6] | 
102 | 50.1 | N#Cc1ccc(Cn2c(=NCCc3cccc(F)c3)n(Cc3cccc4cccnc34)c3ccccc32)cc1 [Compound 8] | 
80 | 50.1 | COc1ccc(CCCN=c2n(Cc3ccc(C#N)cc3)c3ccccc3n2Cc2cccc3cccnc23)cc1 [Compound 9] | 
 | 63.1 | N#Cc1ccc(Cn2c(=NCc3cccc(C#N)c3)n(Cc3cccc4cccnc34)c3ccccc32)cc1 [Compound 10] | 
 | 79.4 | N#Cc1ccc(Cn2c(=NCCc3ccc(F)cc3)n(Cc3cccc4cccnc34)c3ccccc32)cc1 [Compound 11] | 
 | 158 | COc1ccccc1CCN=c1n(Cc2ccc(C#N)cc2)c2ccccc2n1Cc1cccc2cccnc12 [Compound 14] | 
 | 200 | N#Cc1ccc(Cn2c(=NCCCN3CCCC3=O)n(Cc3cccc4cccnc34)c3ccccc32)cc1 [Compound 15] | 
160 | 316 | N#Cc1ccc(Cn2c(=NC(=O)c3cccc(Cl)c3)n(Cc3cccc4cccnc34)c3ccccc32)cc1 [Compound 19] | 
158 | 398 | Cc1cccc(C(=O)N=c2n(Cc3ccc(C#N)cc3)c3ccccc3n2Cc2cccc3cccnc23)c1 [Compound 20] | 
154 | 398 | N#Cc1ccc(Cn2c(=NC(=O)c3ccc(Cl)cc3)n(Cc3cccc4cccnc34)c3ccccc32)cc1 [Compound 21] | 
222 | 631 | N#Cc1ccc(Cn2c(=NC(=O)c3cccc([N+](=O)[O-])c3)n(Cc3cccc4cccnc34)c3ccccc32)cc1 [Compound 22] | 
 | 2000 | N#Cc1ccc(Cn2c(=NCCc3ccccc3)n(Cc3cccc4cccnc34)c3ccccc32)cc1 [Compound 25] | 
125 | 10000 | N#Cc1ccc(Cn2c(=NC(=O)c3ccc(Br)cc3)n(Cc3cccc4cccnc34)c3ccccc32)cc1 [Compound 26] | 
196 | 31600 | N#Cc1ccc(Cn2c(=NC(=O)c3ccc([N+](=O)[O-])cc3)n(Cc3cccc4cccnc34)c3ccccc32)cc1 [Compound 28] | 
118 | 50100 | CC(C)Oc1ccc(C(=O)N=c2n(Cc3ccc(C#N)cc3)c3ccccc3n2Cc2cccc3cccnc23)cc1 [Compound 30] | 
182 | > 100000 | N#Cc1ccc(Cn2c(=NC(=O)c3ccc(C#N)cc3)n(Cc3cccc4cccnc34)c3ccccc32)cc1 [Compound 31] | 
 | 251 | COc1ccc(CCN=c2n(Cc3cccc(Cl)c3)c3ccccc3n2Cc2cccc3cccnc23)cc1 [Compound 49] | 
 | 2510 | N#Cc1ccc(C(=O)Cn2c(=NCCc3ccc(Br)cc3)n(Cc3cccc4cccnc34)c3ccccc32)cc1 [Compound 53] | 
